From the NIST ThermoML archive (doi:10.1016/j.jct.2019.01.022)

Experiments:
[1] = for mass density: 293 K, 101.33 kPa, Pycnometric method; for vapor or sublimation pressure: Transpiration method; for Normal melting temperature: DTA
[2] = Molar enthalpy of transition or fusion; conditions: DSC

CC(C)NC(=O)Nc1ccccc1 [1-isopropyl-3-phenylurea]
Crystal
Conditions | Molar enthalpy of transition or fusion [kcal/mol] | Normal melting temperature [°C] | mass density [kg/m3]
[1] | – | 156.2 | 1050
[2] | 5.35 | – | –

[1], Crystal
Conditions | vapor or sublimation pressure [kPa]
393.3 K | 0.00201
396.2 K | 0.00261
400.3 K | 0.00373
403.2 K | 0.00478
406.5 K | 0.00631
409.6 K | 0.00835
411.7 K | 0.00986
413.7 K | 0.01159
416.5 K | 0.01436
419.6 K | 0.01814
421.5 K | 0.02123
423.8 K | 0.02493

CC(C)(C)NC(=O)Nc1ccccc1 [1-tert-butyl-3-phenylurea]
Conditions | Molar enthalpy of transition or fusion, Crystal 1 [kcal/mol] | Molar enthalpy of transition or fusion, Crystal 2 [kcal/mol] | Normal melting temperature, Crystal 1 [°C] | Triple point temperature, Crystal 2, DSC [K] | mass density, Crystal 2 [kg/m3]
[1] | – | – | 168 | 432 | 1062
[2] | 5.9 | 1.86 | – | – | –

[1], Crystal 2
Conditions | vapor or sublimation pressure [kPa]
385.9 K | 0.00162
390 K | 0.00233
392.4 K | 0.00294
396.3 K | 0.00405
400.2 K | 0.00579
403.3 K | 0.00737
406.2 K | 0.00973
410.5 K | 0.01397
416.2 K | 0.02115
420.6 K | 0.03129
424 K | 0.03902
426.6 K | 0.0483
428.8 K | 0.05831
430.5 K | 0.066

NC(=O)Nc1ccccc1 [N-phenylurea]
[1], Crystal
Conditions | vapor or sublimation pressure [kPa]
386 K | 0.00061
391.7 K | 0.00103
396.2 K | 0.00154
399.5 K | 0.00209
402.4 K | 0.00275
406.2 K | 0.00394
408.3 K | 0.0047
411.5 K | 0.00607
413.6 K | 0.00714
